This is an account of results in ChEMBL document CHEMBL3045838, “Synthesis, antimicrobial and antioxidant activities of 2-[1-{3,5-diaryl-4,5-dihydro-1H-pyrazolenyl}]-4-(4-nitrophenyl)-[1,3]-thiazoles” (2013).

Type in all cases: functional
Assay [1] has as its system Talaromyces marneffei. Description: Antifungal activity against Talaromyces marneffei assessed as growth inhibition by serial plate dilution method.
In assay [2] the test system is Aspergillus flavus. Description: Antifungal activity against Aspergillus flavus NCIM 524 assessed as growth inhibition by serial plate dilution method.
Assay [3] concerns Aspergillus fumigatus. Description: Antifungal activity against Aspergillus fumigatus NCIM 902 assessed as growth inhibition at 1.56 to 25 ug/mL.
Assay [4] relates to Klebsiella pneumoniae. Description: Antibacterial activity against Klebsiella pneumoniae assessed as growth inhibition by serial plate dilution method.
The test system of assay [5] is Talaromyces marneffei. Description: Antifungal activity against Talaromyces marneffei assessed as growth inhibition at 1.56 to 25 ug/mL.
Assay [6] has as its system Aspergillus flavus. In words: Antifungal activity against Aspergillus flavus NCIM 524 assessed as growth inhibition at 1.56 to 25 ug/mL.
Assay [7] relates to Pseudomonas aeruginosa. Description: Antibacterial activity against Pseudomonas aeruginosa ATCC 27853 assessed as growth inhibition by serial plate dilution method.
For assay [8], the system named is Trichophyton mentagrophytes. Description: Antifungal activity against Trichophyton mentagrophytes assessed as growth inhibition by serial plate dilution method.
For assay [9], the system named is Aspergillus fumigatus. In words: Antifungal activity against Aspergillus fumigatus NCIM 902 assessed as growth inhibition by serial plate dilution method.
For assay [10], the system named is Pseudomonas aeruginosa. In words: Antibacterial activity against Pseudomonas aeruginosa ATCC 27853 assessed as growth inhibition at 1.56 to 25 ug/mL.
The subject of assay [11] is Staphylococcus aureus. Description: Antibacterial activity against Staphylococcus aureus ATCC 25923 assessed as growth inhibition at 1.56 to 25 ug/mL.
Assay [12] deals with Radical scavenging activity. Description: Antioxidant activity assessed as inhibition of DPPH radical generation at 4000 ug/mL after 15 min by UV-Vis spectrophotometric analysis relative to control. The note with it: at 4000 µg/mL.
Assay [13] relates to Trichophyton mentagrophytes. Description: Antifungal activity against Trichophyton mentagrophytes assessed as growth inhibition at 1.56 to 25 ug/mL.
Assay [14] deals with Staphylococcus aureus. Description: Antibacterial activity against Staphylococcus aureus ATCC 25923 assessed as growth inhibition by serial plate dilution method.
For assay [15], the system named is Klebsiella pneumoniae. In words: Antibacterial activity against Klebsiella pneumoniae assessed as growth inhibition at 1.56 to 25 ug/mL.
The test system of assay [16] is Escherichia coli. In words: microbe, parasite or virus in culture. As to conditions: ATCC 25922.
Description: Antibacterial activity against Escherichia coli ATCC 25922 assessed as growth inhibition by serial plate dilution method
Assay [17] concerns Escherichia coli. Description: Antibacterial activity against Escherichia coli ATCC 25922 assessed as growth inhibition at 1.56 to 25 ug/mL.

≈ marks a conversion by molar mass, not a printed value.

`COc1ccc(C2=NN(c3nc(-c4ccc([N+](=O)[O-])cc4)cs3)C(c3ccc(-c4ccc(Cl)cc4[N+](=O)[O-])o3)C2)cc1OC` (stereo not drawn): the MIC in assay [1], in assay [2], in [4], in [7], in [8] and in assay [9] was 12.5 µg/mL (≈ 19.8 µM) each time. The MIC in assay [14] and in assay [16] was 12.5 µg/mL (≈ 19.8 µM) each time. Also, the “diameter of the inhibition zone (DIZ)” value in [3], in [5], in [6], in assay [10], in assay [11] and in [13] was 11 mm in each case. The “diameter of the inhibition zone (DIZ)” value in assay [15] and in assay [17] was 11 mm in each case. For the same compound, the inhibition in [12] is 82%.
Consider `COc1ccc(C2=NN(c3nc(-c4ccc([N+](=O)[O-])cc4)cs3)C(c3ccc(SC)cc3)C2)cc1` (stereo not drawn), for which the MIC in [1], in assay [2], in assay [4], in assay [7], in assay [8] and in assay [9] was 25 µg/mL (≈ 49.7 µM) in each case. Also, the MIC in assay [14] and in [16] was 25 µg/mL (≈ 49.7 µM) throughout. Moreover, the diameter of the inhibition zone (DIZ) in assay [3], in assay [5], in [6], in [10], in assay [11] and in assay [13] was < 10 mm throughout. Also, the diameter of the inhibition zone (DIZ) in assay [15] and in assay [17] was < 10 mm throughout. Besides, the inhibition in assay [12] turned out to be 79%.
On to `COc1ccc(C2=NN(c3nc(-c4ccc([N+](=O)[O-])cc4)cs3)C(c3ccc(SC)cc3)C2)cc1OC` (stereo not drawn), for which the MIC in assay [1], in assay [2], in assay [4], in assay [7], in assay [8] and in [9] was 25 µg/mL (≈ 46.9 µM) throughout. The MIC in [14] and in [16] was 25 µg/mL (≈ 46.9 µM) in each case. Further, the diameter of the inhibition zone (DIZ) in assay [3], in assay [5], in [6], in [10], in assay [11] and in assay [13] was < 10 mm throughout. Moreover, the diameter of the inhibition zone (DIZ) in assay [15] and in assay [17] was < 10 mm throughout. The inhibition in assay [12] was 86%.
With `CSc1ccc(C2CC(c3ccc(Cl)cc3)=NN2c2nc(-c3ccc([N+](=O)[O-])cc3)cs2)cc1` (stereo not drawn), the MIC in assay [1], in assay [2], in assay [4], in assay [7], in assay [8] and in assay [9] was 6.25 µg/mL (≈ 12.3 µM) throughout. Moreover, the MIC in [14] and in assay [16] was 6.25 µg/mL (≈ 12.3 µM) in each case. Further, the “diameter of the inhibition zone (DIZ)” value in assay [3], in assay [5], in [6], in assay [10], in assay [11] and in [13] was 16 mm throughout. Also, the “diameter of the inhibition zone (DIZ)” value in assay [15] and in assay [17] was 16 mm each time. The inhibition in [12] came to 38%.
Consider `COc1ccc(C2=NN(c3nc(-c4ccc([N+](=O)[O-])cc4)cs3)C(c3ccc(-c4ccc(F)c(Cl)c4)o3)C2)cc1OC` (stereo not drawn), for which the MIC in assay [1], in assay [2], in [4], in assay [7], in assay [8] and in [9] was 6.25 µg/mL (≈ 10.3 µM) throughout. For the same compound, the MIC in [14] and in assay [16] was 6.25 µg/mL (≈ 10.3 µM) each time. For the same compound, the “diameter of the inhibition zone (DIZ)” value in assay [3], in [5], in assay [6], in [10], in [11] and in [13] was 16 mm throughout. Further, the “diameter of the inhibition zone (DIZ)” value in assay [15] and in assay [17] was 16 mm each time. Moreover, the inhibition in assay [12] came out at 74%.
As for `COc1ccc(-c2ccc(C3CC(c4ccc(OC)c(OC)c4)=NN3c3nc(-c4ccc([N+](=O)[O-])cc4)cs3)o2)c([N+](=O)[O-])c1` (stereo not drawn), the MIC in assay [1], in [2], in assay [4], in assay [7], in assay [8] and in [9] was 12.5 µg/mL (≈ 19.9 µM) in each case. In addition, the MIC in assay [14] and in assay [16] was 12.5 µg/mL (≈ 19.9 µM) throughout. Moreover, the “diameter of the inhibition zone (DIZ)” value in assay [3], in assay [5], in assay [6], in [10], in assay [11] and in assay [13] was 11 mm throughout. Moreover, the “diameter of the inhibition zone (DIZ)” value in [15] and in [17] was 11 mm in each case. Further, the inhibition in [12] was 86%.
Take `CSc1ccc(C2CC(c3ccc(Cl)cc3Cl)=NN2c2nc(-c3ccc([N+](=O)[O-])cc3)cs2)cc1` (stereo not drawn): the MIC in [1], in assay [2], in [4], in [7], in [8] and in [9] was 6.25 µg/mL (≈ 11.5 µM) throughout. The MIC in [14] and in assay [16] was 6.25 µg/mL (≈ 11.5 µM) in each case. The “diameter of the inhibition zone (DIZ)” value in assay [3], in assay [5], in assay [6], in assay [10], in assay [11] and in assay [13] was 16 mm in each case. In addition, the “diameter of the inhibition zone (DIZ)” value in [15] and in assay [17] was 16 mm throughout. Besides, the inhibition in assay [12] is 88%.
For the compound `COc1ccc(C2=NN(c3nc(-c4ccc([N+](=O)[O-])cc4)cs3)C(c3ccc(-c4ccc([N+](=O)[O-])cc4)o3)C2)cc1OC` (stereo not drawn), the MIC in assay [1], in assay [2], in [4], in assay [7], in assay [8] and in assay [9] was 6.25 µg/mL (≈ 10.5 µM) throughout. For the same compound, the MIC in [14] and in assay [16] was 6.25 µg/mL (≈ 10.5 µM) each time. Further, the “diameter of the inhibition zone (DIZ)” value in [3], in assay [5], in [6], in assay [10], in [11] and in assay [13] was 16 mm in each case. Further, the “diameter of the inhibition zone (DIZ)” value in assay [15] and in assay [17] was 16 mm each time. Also, the inhibition in assay [12] came out at 62%.
For `CCC(C)n1ncn(-c2ccc(N3CCN(c4ccc(OCC5COC(Cn6cncn6)(c6ccc(Cl)cc6Cl)O5)cc4)CC3)cc2)c1=O` (stereo not drawn) [ITRACONAZOLE], the MIC in assay [1] was 6.25 µg/mL (≈ 8.86 µM); in [2] it was 1.56 µg/mL (≈ 2.21 µM); in assay [8] it was 6.25 µg/mL (≈ 8.86 µM); in assay [9], 6.25 µg/mL (≈ 8.86 µM). For the same compound, the “diameter of the inhibition zone (DIZ)” value in assay [3] worked out at 30 mm; in assay [5] it was 25 mm; in assay [6], 22 mm; in [13], 23 mm.
On to `CC1(C)S[C@@H]2[C@H](NC(=O)[C@H](N)c3ccccc3)C(=O)N2[C@H]1C(=O)O` [AMPICILLIN], for which the MIC came out at 6.25 µg/mL (≈ 17.9 µM) in assay [4], 6.25 µg/mL (≈ 17.9 µM) in assay [7], 1.56 µg/mL (≈ 4.46 µM) in assay [14] and 6.25 µg/mL (≈ 17.9 µM) in assay [16]. The “diameter of the inhibition zone (DIZ)” value stood at 25 mm in assay [10], 22 mm in assay [11], 23 mm in assay [15] and 30 mm in assay [17].
Consider `O=C1O[C@H]([C@@H](O)CO)C(O)=C1O`, for which the inhibition in assay [12] stood at 96%.
